# Data taken from ChEMBL document CHEMBL4665781, “Metabolomic Comparison and Assessment of Co-cultivation and a Heat-Killed Inducer Strategy in Activation of Cryptic Biosynthetic Pathways” (J Nat Prod, 2020).
# Calls of active or inactive are those of the source. The calls are words filed in the database; no cut-off is given here.
# What was measured:
# [1] = Cytotoxicity against human HTB26 cells assessed as reduction in cell viability after 24 hrs by alamar blue dye based assay; conditions: HTB26, 24 h
# MCF7 [2] = assay: Cytotoxicity against human MCF7 cells assessed as reduction in cell viability after 24 hrs by alamar blue dye based assay; conditions: MCF7, 24 h
# Candida albicans = assay: Antimicrobial activity against Candida albicans ATCC 14035 after 22 hrs by CLSI protocol based microbroth dilution assay; type: functional, organism-based
# Proteus vulgaris = assay: Antimicrobial activity against Proteus vulgaris ATCC 12454 after 22 hrs by CLSI protocol based microbroth dilution assay; type: functional, organism-based
# Staphylococcus warneri = assay: Antimicrobial activity against Staphylococcus warneri ATCC 17917 after 22 hrs by CLSI protocol based microbroth dilution assay; type: functional, organism-based
# Enterococcus faecium = assay: Antimicrobial activity against vancomycin-resistant Enterococcus faecium EF379 after 22 hrs by CLSI protocol based microbroth dilution assay; type: functional, organism-based
# Staphylococcus aureus = assay: Antimicrobial activity against methicillin-resistant Staphylococcus aureus ATCC 33591 after 22 hrs by CLSI protocol based microbroth dilution assay; type: functional, organism-based
# HCT-116 = assay: Cytotoxicity against human HCT-116 cells assessed as reduction in cell viability up to 32 ug/ml after 24 hrs by alamar blue dye based assay; conditions: hct-116, 24 h
# [3] = Cytotoxicity against human HTB26 cells assessed as reduction in cell viability up to 32 ug/ml after 24 hrs by alamar blue dye based assay; conditions: htb26, 24 h
# MCF7 [4] = assay: Cytotoxicity against human MCF7 cells assessed as reduction in cell viability up to 32 ug/ml after 24 hrs by alamar blue dye based assay; conditions: mcf7, 24 h
# Vero = assay: Cytotoxicity against African green monkey Vero cells assessed as reduction in cell viability up to 32 ug/ml after 24 hrs by alamar blue dye based assay; conditions: chlorocebus sabaeus
Compound,IC50 [1],IC50 (MCF7 [2]),Activity (Candida albicans),Activity (Proteus vulgaris),Activity (Staphylococcus warneri),Activity (Enterococcus faecium),Activity (Staphylococcus aureus),Activity (HCT-116),Activity [3],Activity (MCF7 [4]),Activity (Vero)
CCCCCCCC1=C(C)C(=O)C(=O)c2c1[nH]c1ccccc21,3.67 µM,3.07 µM,inactive,inactive,inactive,inactive,inactive,,,,
COc1cccc(C(=O)NC(N)=O)c1O,,,inactive,inactive,inactive,inactive,inactive,Non-Toxic,Non-Toxic,Non-Toxic,Non-Toxic
